≈ marks a conversion by molar mass, not a printed value. Read-outs that look alike come from different tables or passages of the source.
Experiments:
[1] = Plasma protein binding, human; assay type: in vitro ADME; settings: read-out: PPB, % bound, human (converted)
[2] = hRPTEC biomarkers cytotoxicity screen; assay type: cell-based; settings: human, human renal proximal tubular epithelial cells (hRPTEC); cell count, nuclear size, DNA structure, mitochondrial mass and membrane potential, phospholipidosis, glutathione content
E. coli = assay: MIC testing, E. coli; assay type: cell-based
Procedure: Susceptibility testing was performed based on Clinical and Laboratory Standards Institute (CLSI) guidelines M07-A11 and M100-S29. All bacterial strains were recovered from long-term storage (−80° C.) and cultured on nutrient agar (NA) at 37° C. under aerobic conditions for approximately 20 h, except E. coli ATCC BAA-2469 that was recovered from long-term storage on nutrient agar before further passaging onto nutrient agar+25 μg/mL imipenem (according to ATCC guidelines). Minimum inhibitory concentration (MIC) assays were performed in BD non cation adjusted Mueller-Hinton broth (MHB) in 96-well flat-bottomed polystyrene plates (Corning #3370). Test articles and comparator antibiotics were prepared in sterile water to a concentration of 5.12 mg/mL. For each antibiotic stock, 2× top concentrations of test compounds and comparators were prepared in the appropriate growth medium and added to well 1 of a 96-well plate. Serial 1:1 dilutions were performed from columns 1-11 (changing tips at each dilution step); column 12 served as a positive (growth) control. A negative (sterility) control was set up in available spare wells. A suspension of each strain was prepared in sterile phosphate-buffered saline (PBS) to a density equivalent to a 0.5 McFarland standard. Bacterial suspensions were then diluted 1:150 in the appropriate medium and used to inoculate assay plates (columns 1 through 11) to provide a starting inoculum of ˜2 to 8×10^5 CFU/mL. […] The MIC was defined as the lowest concentration of test articles resulting in complete inhibition of visible growth.
MICs were determined using standard methodologies as previously described. […] Time-kill assays were performed against uropathogenic E. coli strains, including the sequence type 131 (ST131) NCTC-13341 isolate.

E. coli UTI89 = assay: 24 h thigh muscle infection model in neutropenic mice; assay type: in vivo, CD-1 mice
Procedure: FIG. 4 illustrates the efficacy of V-r in reducing E. coli UTI89 bacterial burden in a 24 h thigh muscle infection model in neutropenic CD-1 mice.
In a 24 h thigh muscle infection model, E. coli UTI89 was inoculated at 7.8×10^4 CFU into one thigh muscle per mouse (n=5-8/group) and treated with V-r (total dose of […]) using a q6h dosing regimen from 1 h post-infection. […] Overall, V-r caused a ˜4 to 7.5 log10 reduction in bacterial burden, as compared to vehicle control, over the entire dose range.

HepG2 cell cytotoxicity = assay type: cell-based; settings: human, HepG2 cells; FBS-deficient media
[3] = Thermodynamic solubility in saline; assay type: physicochemical; settings: saline or isotonic, thermodynamic from solid; read-out: TD solubility in saline
Red blood cell lysis = assay type: cell-based; settings: human, human erythrocytes; FBS-deficient media
A. baumannii = assay: MIC testing, A. baumannii; assay type: cell-based; settings: Acinetobacter baumannii
Procedure: (§1) Susceptibility testing was performed based on Clinical and Laboratory Standards Institute (CLSI) guidelines M07-A11 and M100-S29. All bacterial strains were recovered from long-term storage (−80° C.) and cultured on nutrient agar (NA) at 37° C. under aerobic conditions for approximately 20 h, except E. coli ATCC BAA-2469 that was recovered from long-term storage on nutrient agar before further passaging onto nutrient agar+25 μg/mL imipenem (according to ATCC guidelines). Minimum inhibitory concentration (MIC) assays were performed in BD non cation adjusted Mueller-Hinton broth (MHB) in 96-well flat-bottomed polystyrene plates (Corning #3370). Test articles and comparator antibiotics were prepared in sterile water to a concentration of 5.12 mg/mL. For each antibiotic stock, 2× top concentrations of test compounds and comparators were prepared in the appropriate growth medium and added to well 1 of a 96-well plate. Serial 1:1 dilutions were performed from columns 1-11 (changing tips at each dilution step); column 12 served as a positive (growth) control. A negative (sterility) control was set up in available spare wells. A suspension of each strain was prepared in sterile phosphate-buffered saline (PBS) to a density equivalent to a 0.5 McFarland standard. […]
(§2) MICs were determined using standard methodologies as previously described. […]

E. coli ATCC 25922 [4] = assay: 9 h thigh muscle infection model in neutropenic mice; assay type: in vivo, CD-1 mice
Procedure: Using a screening-based strategy, preliminary proof-of-concept studies with V-r employed an abbreviated 9 h thigh muscle infection model in male CD-1 mice rendered neutropenic. To that end, E. coli ATCC 25922 was inoculated at 9.7×10^4 CFUs into both thigh muscles per mouse (n=5 per experimental group). V-r was administered q2h SC (110-880 mg/kg total dose) starting 1 h post-infection. At 9 h, thigh homogenates were prepared and CFUs were enumerated following culture on CLED agar.

[5] = Plasma protein binding, mouse; assay type: in vitro ADME; settings: read-out: PPB, % bound, mouse
MRSA infections = settings: 150 mg/kg in rats, 100 mg/kg in dogs, 15 mg/kg in humans; cited from earlier work
[6] = Single SC administration tolerability; assay type: in vivo; settings: highest dose tested (800 mg/kg), male CD-1 mice
[7] = system: E. coli UNT057-1 (CTX-M-15); assay: Complicated urinary tract infection (cUTI) model
Procedure: Female C3H/Hej mice were placed on a 5% glucose water starting 6 days prior to infection and then for the remainder of the study. The complicated urinary tract infection (cUTI) model was established via trans-urethral injection of the bacterial inoculum. Mice were anesthetized with Ketamine HCL at 40 mg/kg body weight and Xylazine at 6 mg/kg body weight in 0.15 ml PBS injected intra-peritoneally. Using a dissection scope (10×), the urethral orifice was located and a tapered PE10 catheter (attached to MRE40 tubing and a 23 G blunt hub syringe) was inserted and 0.05 ml of the prepared inoculum slowly injected. […] E. coli UNT057-1 (CTX-M-15) strain was used for the cUTI model and inoculum grown in Tryptic soy broth (TSB) to 1.0×10^10 CFU/ml suspension. […] A positive control of meropenem was given at 300 mg/kg q12h by sub-cutaneous administration for a total of 3 days. All treatment groups consisted of 10 animals with CFU (kidneys, bladder and urine) bacterial counts at 7 days post-infection used as the endpoint for efficacy. At 7 days post-infection, urine was collected from mice into 1.5 ml sterile tubes and then mice were euthanized. Kidneys and bladders were homogenized, and the homogenates and urine were serially diluted in 1×PBS and plated onto Brain heart infusion and 0.5% charcoal agar. Agar plates were incubated at 37° C., and colony counts were recorded the following day.

in vivo [8] = settings: male, CD-1, mouse, plasma, sc
[9] = PK profiles in mice, IV vs SC administration; assay type: in vivo; settings: IV 10 mg/kg, SC 20 mg/kg
Source text: FIG. 11 illustrates the feasibility of adaptation of V-r as a low-dose therapy to treat E. coli-associated cUTIs via sub-cutaneous administration.
Adaptation of V-r as a low-dose therapy to treat E. coli-associated cUTIs via sub-cutaneous administration was further investigated. Vancomycin can only be given by IV infusion therapy to treat systemic infections. Due to the very low dose therapy of V-r, additional modes of administration of the drug can be pursued besides IV administration pending retention of high bioavailability. In mice, the exposure of V-r (measured by the AUC) following sub-cutaneous administration was essentially 100% of that afforded by IV administration (see FIG. 11). […] Such a finding is critically important for hospitalized cUTIs (and other infections) whereby the SC route might offer a “go-home sooner” of patients and thus early discharge from the hospital for continued low dose V-r therapy from outpatient departments or within the clinical community settings. Such an approach facilitates the practice of prudent antimicrobial stewardship.

[10] = for AUC: mice
GPB = assay: MIC testing, GPB; assay type: cell-based; settings: FIG. 2
Procedure: as §1, §2

[11] = for Cl / Vd: CD-1 mice
E. coli ATCC 25922 [12] = assay type: cell-based
LogD (Octanol/buffer) = assay type: physicochemical
in vivo [13] = settings: beagle, dog, iv, 25 mg/kg
[14] = total dose over 24 h 1272 mg/kg
[15] = total dose over 24 h 200 mg/kg, q6h
[16] = total dose over 24 h 1050 mg/kg
[17] = total dose over 24 h 1400 mg/kg
[18] = total dose over 9 h 110 mg/kg, q2h SC

CN[C@H](CC(C)C)C(=O)N[C@H]1C(=O)N[C@@H](CC(N)=O)C(=O)N[C@H]2C(=O)N[C@H]3C(=O)N[C@H](C(=O)N[C@H](C(=O)O)c4cc(O)cc(O)c4-c4cc3ccc4O)[C@H](O)c3ccc(c(Cl)c3)Oc3cc2cc(c3O[C@@H]2O[C@H](CO)[C@@H](O)[C@H](O)[C@H]2O[C@H]2C[C@](C)(N)[C@H](O)[C@H](C)O2)Oc2ccc(cc2Cl)[C@H]1O [Vancomycin, vancomycin, reference compound]
fraction unbound [1]: 0.5
CC50 [2]: > 100 µM
MIC (E. coli; Escherichia coli, read-out: MICs): 64 to 256 µg/mL (≈ 44.2 to 177 µM)
Log10 Group Geometric mean (CFU/g) ± SD (E. coli UTI89; [14]): 8.48 ± 1.31 Log10 CFU/g
Log10 change from vehicle (CFU/g) (E. coli UTI89; [14]): −1.23 Log10 CFU/g
CC50 (HepG2 cell cytotoxicity): > 750 µM
solubility [3]: > 50 mg/mL
CC50 (Red blood cell lysis): > 750 µM
MIC (A. baumannii; read-out: MICs): 64 to 256 µg/mL (≈ 44.2 to 177 µM)
impact on E. coli burden (E. coli ATCC 25922 [4]; dose equivalent to the highest dose of V-r): failed to significantly impact E. coli burden
Log10 Group Geometric mean (CFU/g) ± SD (E. coli ATCC 25922 [4]; total dose over 9 h 800 mg/kg): 6.60 ± 0.66 Log10 CFU/g
Log10 change from vehicle (CFU/g) (E. coli ATCC 25922 [4]; total dose over 9 h 800 mg/kg): −0.51 Log10 CFU/g
fraction unbound [5]: 0.5
target AUC in the treatment of MRSA infections (MRSA infections): approximately 400 mg·h/l

CN[C@H](CC(C)C)C(=O)N[C@H]1C(=O)N[C@@H](CC(N)=O)C(=O)N[C@H]2C(=O)N[C@H]3C(=O)N[C@H](C(=O)N[C@H](C(=O)N[C@H](CCCNC(=N)N)C(N)=O)c4cc(O)cc(O)c4-c4cc3ccc4O)[C@H](O)c3ccc(c(Cl)c3)Oc3cc2cc(c3O[C@@H]2O[C@H](CO)[C@@H](O)[C@H](O)[C@H]2O[C@H]2C[C@](C)(N)[C@H](O)[C@H](C)O2)Oc2ccc(cc2Cl)[C@H]1O [V-r, vancomycin-D-arginine]
tolerability of a single SC administration [6]: well tolerated
fraction unbound [1]: 0.24
q12h dose with maximal abrogation of bacterial burden, bladder ([7]; bladder, q12h for 3 days): 25 mg/kg
required daily 24 h dose to cause maximal reductions in bacterial burden ([7]; kidney): 100 mg/kg
q12h dose with maximal abrogation of bacterial burden, kidney ([7]; kidney, q12h for 3 days): 50 mg/kg
required daily 24 h dose to cause maximal reductions in bacterial burden ([7]; urine and bladder): 50 mg/kg
q12h dose with maximal abrogation of bacterial burden, urine ([7]; urine, q12h for 3 days): 25 mg/kg
CC50 [2]: > 100 µM
MIC range (E. coli): 8 to 16 µg/mL
MIC (E. coli; Escherichia coli): 8 µg/mL (≈ 4.99 µM)
MIC90 (E. coli; Escherichia coli): 16 µg/mL (≈ 9.97 µM)
reduction of burden below stasis (E. coli UTI89; all doses higher than 200 mg/kg): up to 2.7 log10 CFU/g
total 24 h dose reducing E. coli burden to pre-treatment (stasis) levels (E. coli UTI89; static dose): 250 mg/kg
reduction of E. coli burden (E. coli UTI89; thigh muscle model): > 7 log10 CFU/g
Log10 Group Geometric mean (CFU/g) ± SD (E. coli UTI89; [15]): 5.60 ± 2.28 Log10 CFU/g
Log10 change from vehicle (CFU/g) (E. coli UTI89; [15]): −4.11 Log10 CFU/g
Log10 Group Geometric mean (CFU/g) ± SD (E. coli UTI89; total dose over 24 h 400 mg/kg): 3.27 ± 1.88 Log10 CFU/g
Log10 change from vehicle (CFU/g) (E. coli UTI89; total dose over 24 h 400 mg/kg): −6.43 Log10 CFU/g
Log10 Group Geometric mean (CFU/g) ± SD (E. coli UTI89; total dose over 24 h 700 mg/kg): 2.58 ± 0.25 Log10 CFU/g
Log10 change from vehicle (CFU/g) (E. coli UTI89; total dose over 24 h 700 mg/kg): −7.13 Log10 CFU/g
Log10 Group Geometric mean (CFU/g) ± SD (E. coli UTI89; [16]): 2.08 ± 0.89 Log10 CFU/g
Log10 change from vehicle (CFU/g) (E. coli UTI89; [16]): −7.63 Log10 CFU/g
Log10 Group Geometric mean (CFU/g) ± SD (E. coli UTI89; [17]): 2.68 ± 1.38 Log10 CFU/g
Log10 change from vehicle (CFU/g) (E. coli UTI89; [17]): −7.03 Log10 CFU/g
AUC (in vivo [8]; 20 mg/kg): 42.7 µg·h/mL
Cmax (in vivo [8]; 20 mg/kg): 20.4 µg/mL
half-life (in vivo [8]; 20 mg/kg): 0.87 h
AUC (in vivo [8]; 121 mg/kg): 366 µg·h/mL
Cmax (in vivo [8]; 121 mg/kg): 98.4 µg/mL
half-life (in vivo [8]; 121 mg/kg): 1.29 h
exposure following sub-cutaneous vs IV administration [9]: essentially equivalent
AUC ([10]; single IV 25 mg/kg, 25 mg/kg): 43.27 µg·h/mL
AUC ([10]; single IV 50 mg/kg, 50 mg/kg): 103.64 µg·h/mL
PK profile ([10]; single IV 1-50 mg/kg): linear
CC50 (HepG2 cell cytotoxicity): > 750 µM
antimicrobial potency towards a number of GPB (GPB): remained intact
Cl ([11]; SC 20 mg/kg): 7.8 mL/min/kg
Vd ([11]; SC 20 mg/kg): 0.59 L/kg
Cl ([11]; SC 121 mg/kg): 5.4 mL/min/kg
Vd ([11]; SC 121 mg/kg): 0.60 L/kg
elimination kinetics ([11]; SC administration): first-order elimination
FOR (at 8 × MIC) (E. coli ATCC 25922 [12]): <2.32 × 10^−10
solubility [3]: 373 mg/mL (≈ 232000 µM)
CC50 (Red blood cell lysis): > 750 µM
MIC (A. baumannii): 8 µg/mL (≈ 4.99 µM)
reduction below stasis (E. coli ATCC 25922 [4]; 440 mg/kg): 1.0 log10
reduction below stasis (E. coli ATCC 25922 [4]; 880 mg/kg): 1.3 log10
extrapolated static dose (E. coli ATCC 25922 [4]; 9 h model, total dose): 215 mg/kg
Log10 Group Geometric mean (CFU/g) ± SD (E. coli ATCC 25922 [4]; [18]): 5.87 ± 0.60 Log10 CFU/g
Log10 change from vehicle (CFU/g) (E. coli ATCC 25922 [4]; [18]): −1.24 Log10 CFU/g
Log10 Group Geometric mean (CFU/g) ± SD (E. coli ATCC 25922 [4]; total dose over 9 h 440 mg/kg): 4.14 ± 0.63 Log10 CFU/g
Log10 change from vehicle (CFU/g) (E. coli ATCC 25922 [4]; total dose over 9 h 440 mg/kg): −2.97 Log10 CFU/g
Log10 Group Geometric mean (CFU/g) ± SD (E. coli ATCC 25922 [4]; total dose over 9 h 880 mg/kg): 3.76 ± 0.40 Log10 CFU/g
Log10 change from vehicle (CFU/g) (E. coli ATCC 25922 [4]; total dose over 9 h 880 mg/kg): −3.35 Log10 CFU/g
logD (LogD (Octanol/buffer)): < -4.01
AUC (in vivo [13]): 580 µg·h/mL
